Results on one molecule are retold here after patent US20070135383A1, “Phospholipase inhibitors, including multi-valent phospholipase inhibitors, and use thereof, including as lumen-localized phospholipase inhibitors” (priority 2005, published 2007).

The target in test [1] is T1, human group 1B PLA2 (hps PLA2) (Homo sapiens, UniProt P04054).
T1 construct: made in house; host or cells: E. coli
Description: Fluorimetric PPyrPM assay for group 1B PLA2 inhibition (Example 12). The settings on record: human pancreas secreted PLA2; read-out: ILYPSA IC50 hps PLA2. It is filed as biochemical.

Test [2] deals with T2, mouse group 1B PLA2 (mps PLA2) (Mus musculus, UniProt Q9Z0Y2).
T2 construct: made in house; host or cells: E. coli
T2 sequence (Q9Z0Y2 23-146): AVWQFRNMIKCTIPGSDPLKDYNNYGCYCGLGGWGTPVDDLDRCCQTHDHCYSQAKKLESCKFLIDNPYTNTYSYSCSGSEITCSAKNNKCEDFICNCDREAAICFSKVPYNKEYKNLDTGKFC
The test is described as above. It is filed as biochemical. The settings on record: mouse pancreas secreted PLA2; read-out: ILYPSA IC50 mps PLA2.

T1 sequence (P04054 23-148): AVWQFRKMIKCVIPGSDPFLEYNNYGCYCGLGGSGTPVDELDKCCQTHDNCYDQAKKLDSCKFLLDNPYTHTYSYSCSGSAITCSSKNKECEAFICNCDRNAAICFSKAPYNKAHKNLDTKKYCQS

Regarding `Cc1c(C(=O)C(N)=O)c2c(OCC(=O)O)cccc2n1CCCCCCCCSCCCCCCCCSCCCCCCCCn1c(C)c(C(=O)C(N)=O)c2c(OCC(=O)O)cccc21` [ILY-V-24, 2,2′-(1,1′-(8,8′-(Octane-1,8-diylbis(sulfanediyl))bis(octane-8,1-diyl))bis(3-(2-amino-2-oxoacetyl)-2-methyl-1H-indole-4,1-diyl))bis(oxy)diacetic acid], the IC50 in test [1] is 540 nM; in test [2], 1050 nM.
